In paper PMC6027146, “Synthesis and Structure-Activity Relationships of (−)-cis-N-Normetazocine-Based LP1 Derivatives” (Pharmaceuticals, 2018):
Entries after “also recorded” stand apart in the source; their conditions may differ. Where two headings read alike, the source gives them in different places.

Experiments:
recombinant human DOR = target: T1, recombinant human DOR (Homo sapiens, UniProt P41143); assay: Calcium mobilization assay, CHO-DOR cells expressing GαqG66Di5; format: cell-based; settings: for DOR pEC50 (CL95%): agonist mode, crc incomplete = incomplete concentration response curve at 10 μM; for DOR pEC50 (CL95%) / DOR pKB (CL95%): Inactive = inactive at 10 μM; for DOR pKB (CL95%): antagonist mode, DPDPE as agonist; for functional profile at DOR: calcium mobilization
T1 construct: expressed in transfected cells; supplied by Dr. Eva Varga (University of Arizona); infected with a retrovirus for GαqG66Di5
Protocol: (§1) The pharmacological characterization of LP1 derivatives 2 and 10–16 was performed by calcium mobilization assay (Table 2). This procedure was preliminarily validated through a series of experiments where the effects of DPDPE, dermorphin, and dynorphin A were assessed in CHO cells expressing the human recombinant opioid receptors and Gαqi5 or GαqG66Di5 chimeric proteins.
(§2) Chinese hamster ovary (CHO) cells expressing the recombinant human MOR and KOR (CHO^MOR and CHO^KOR) were kindly provided by Dr. Larry Toll (SRI International, Menlo Park, CA, USA), and CHO cells expressing the recombinant human DOR (CHO^DOR) were supplied by Dr. Eva Varga (Department of Medical Pharmacology, The University of Arizona, Tucson, AZ, USA). CHO cells lines permanently coexpressing the opioid receptors and the C-terminally modified Gαqi5 were prepared by infecting the CHO lines described above with a recombinant retrovirus expressing the chimeric α subunit and the hygromycin resistance gene. Similarly, CHO cells lines permanently coexpressing DOR and the C-terminally modified GαqG66Di5 were prepared by infecting the CHO lines described above with a recombinant retrovirus expressing the chimeric α subunit and the hygromycin resistance gene. Polyclonal cell lines were generated using the pantropic retroviral expression system form BD-Clontech, as described previously. Stable lines were selected under hygromycin B (100 μg/mL) and geneticin (600 μg/mL) for 2–3 weeks after the infection.
(§3) CHO cells, expressing human opioid receptors and the Gαqi5 protein, and CHODOR, expressing the GαqG66Di5 protein, were maintained in culture medium consisting of Dulbecco minimum essential medium (DMEM) and Ham F-12 (1:1) (50/50) supplemented with 10% fetal calf serum (FCS), L-glutamine (2 mM), geneticin (200 μg/mL; G418), hygromycin B (100 μg/mL) at 37 °C in 5% CO2 humidified air. When confluence was reached (3–4 days), cells were subcultured as required using trypsin/EDTA, and used for experimentation. The different cell lines were seeded at a density of […] into black 96-well, clear-bottomed plates. After 24 h incubation, the cells were loaded with medium supplemented with 2.5 mM probenecid, 3 μM of the calcium sensitive fluorescent dye Fluo-4 AM, and 0.01% pluronic acid, for 30 min at 37 °C. Afterwards, the loading solution was aspirated and 100 μL/well of assay buffer—HBSS supplemented with 20 mM HEPES, 2.5 mM probenecid and 500 μM Brilliant Black (Aldrich, St. Louis, MO, USA)—was added. Serial dilutions of ligands for experimental use were made in HBSS/HEPES (20 mM) buffer (containing 0.005% BSA fraction V). After placing both plates (cell culture and compound plate) into the FlexStation II (Molecular Device, Union City, San Jose, CA 94587, USA), fluorescence changes were measured at room temperature. Online additions were carried out in a volume of 50 μL/well. Antagonists were incubated 15 min before the addition of the agonist. Maximum change in fluorescence, expressed in percent of baseline fluorescence, was used to determine agonist response.
(§4) Analysis of the binding data was performed using the Origin 7.5 software (OriginLab Corporation, Northampton, MA, USA). In calcium mobilization experiments, data were analyzed by non-linear curve fitting equation, using GraphPad 5.0 software. […] Ligand efficacy was expressed as intrinsic activity (α), calculated as the ratio between the Emax of the ligand and that of the respective standards. Calcium mobilization data were expressed as FIU (fluorescence intensity units) in percent, over the baseline. Agonist potencies are given as pEC50 (the negative logarithm to base 10 of the molar concentration of an agonist that produces 50% of the maximal possible effect, Emax). Concentration response curves to agonists were fitted with the following equation: Effect = baseline + (Emax − baseline)/(1+10^(LogEC50 − X) ∗ HillSlope) where X is the agonist concentration. […]

recombinant human MOR = target: T2, recombinant human MOR (Homo sapiens, UniProt P35372); assay: Calcium mobilization assay, CHO-MOR cells expressing Gαqi5; format: cell-based; settings: for functional profile at MOR: calcium mobilization; for intrinsic activity (α) at MOR: ratio of Emax of ligand to that of the standard; for MOR pEC50 (CL95%): agonist mode, Inactive = inactive at 10 μM, crc incomplete = incomplete concentration response curve at 10 μM
T2 construct: expressed in transfected cells; gift of Dr. Larry Toll (SRI International); infected with a retrovirus for Gαqi5

rat-DOR = target: T3, rat-DOR (Rattus norvegicus, UniProt P33533); assay: Radioligand competition binding, [3H]-DPN, HEK293 membranes, DOR
T3 construct: expressed in transfected cells
Protocol: (§5) All synthesized compounds were tested in vitro by radioligand competition binding using [^3H]-diprenorphine ([^3H]-DPN) to measure the affinity for opioid receptor subtypes in membranes from HEK293 cells stably expressing either MOR, DOR, or KOR, as previously described.
(§6) Confluent monolayers of HEK293 (human embryonic kidney 293) cells stably expressing rat-MOR, rat-DOR, or human-KOR were harvested, collected by centrifugation at 1500 rpm for 5 min, and washed once with phosphate-buffered saline (PBS) at pH 7.5. Membranes from cell pellets were carried out as described by Georgoussi and Zioudrou (1993) and Papakonstantinou et al. (2015). Briefly, cell pellets were resuspended in ice-cold membrane buffer (10 mM Tris-HCl, pH 7.5 and 0.1 mM EDTA), homogenized, and centrifuged at 2,000 g for 3 min at 4 °C. Supernatants were further centrifuged at 45,000 rpm for 30 min at 4 °C. The membrane pellet was resuspended in ice-cold membrane buffer at a protein concentration of approximately 1 mg/mL and stored in aliquots at −70 °C. Protein concentration was determined according to Bradford assay.
(§7) In the experiments designed to define compound affinity and selectivity for MOR, DOR, and KOR, membranes expressing each of these opioid receptors ([…]) were incubated at 30 °C for 45 min in buffer containing 50 mM Tris-HCl, pH 7.5, 100 mM NaCl, and 10 mM MgCl2 as described by Georgoussi et al. […] The ability of compounds 10–16 to displace [^3H]-DPN (3.75 nM) binding to the opioid receptors was assessed as described by Morou And Georgoussi (2005). Non-specific binding was measured in the presence of […] Naloxone. The reaction was stopped by rapid filtration and three washes in ice-cold 50 mM Tris-HCl, pH 7.4, through GF/C filters (Whatman, Maidstone, UK) using an automated cell harvester (Brandel Inc., Gaithersburg, MD, USA). The radioactivity was measured by liquid scintillation counting (Liquid Scintillation Analyzer, Packard).
(§8) Analysis of the binding data was performed using the Origin 7.5 software (OriginLab Corporation, Northampton, MA, USA). In calcium mobilization experiments, data were analyzed by non-linear curve fitting equation, using GraphPad 5.0 software. […] Ligand efficacy was expressed as intrinsic activity (α), calculated as the ratio between the Emax of the ligand and that of the respective standards. Calcium mobilization data were expressed as FIU (fluorescence intensity units) in percent, over the baseline. Agonist potencies are given as pEC50 (the negative logarithm to base 10 of the molar concentration of an agonist that produces 50% of the maximal possible effect, Emax). Concentration response curves to agonists were fitted with the following equation: Effect = baseline + (Emax − baseline)/(1+10^(LogEC50 − X) ∗ HillSlope) where X is the agonist concentration.

human-KOR [1] = target: T4, human-KOR (Homo sapiens, UniProt P41145); assay: Calcium mobilization assay, CHO-KOR cells expressing Gαqi5; format: cell-based; parameters: expressed in transfected cells; gift of Dr. Larry Toll (SRI International); infected with a retrovirus for Gαqi5; settings: for KOR pEC50 (CL95%): agonist mode, crc incomplete = incomplete concentration response curve at 10 μM; for KOR pEC50 (CL95%) / KOR pKB (CL95%): Inactive = inactive at 10 μM; for KOR pKB (CL95%): antagonist mode, dynorphin A as agonist; for functional profile at KOR: calcium mobilization
Protocol: as §1, §2, §3, §4

rat-MOR = target: T5, rat-MOR (Rattus norvegicus, UniProt P33535); assay: Radioligand competition binding, [3H]-DPN, HEK293 membranes, MOR
T5 construct: expressed in transfected cells
Protocol: as §5, §6, §7, §8

human-KOR [2] = target: T4, human-KOR; assay: Radioligand competition binding, [3H]-DPN, HEK293 membranes, KOR; parameters: expressed in transfected cells
Protocol: as §5, §6, §7, §8

| SMILES | DOR pEC50 (CL95%) (recombinant human DOR) | DOR pKB (CL95%) (recombinant human DOR) | EC50 (recombinant human MOR) | functional profile at MOR (recombinant human MOR) | intrinsic activity (α) at MOR (recombinant human MOR) | Ki (rat-DOR) | KOR pEC50 (CL95%) (human-KOR [1]) | Ki (rat-MOR) | Ki (human-KOR [2]) | Kb (recombinant human DOR) | functional profile at DOR (recombinant human DOR) | Kb (human-KOR [1]) | KOR pKB (CL95%) (human-KOR [1]) | functional profile at KOR (human-KOR [1]) | melting point | Kb (recombinant human MOR) | MOR pEC50 (CL95%) (recombinant human MOR) | also measured |
| --- | --- | --- | --- | --- | --- | --- | --- | --- | --- | --- | --- | --- | --- | --- | --- | --- | --- | --- |
| C[C@H]1[C@H]2Cc3ccc(O)cc3[C@]1(C)CCN2CCC(=O)Nc1ccc(F)cc1 [Compound 10, N-(4-Fluorophenyl)-3-[(2R,6R,11R)-8-hydroxy-6,11-dimethyl-1,4,5,6-tetrahydro-2,6-methano-3-benzazocin-3(2H)-yl]propanamide] | able to stimulate calcium mobilization, but only at the higher concentration tested; also recorded: crc incomplete | Inactive | 2140 nM | MOR partial agonists | 0.30 ± 0.015 | 920 ± 120 nM | crc incomplete | 0.28 ± 0.013 µM | 4.8 ± 0.95 µM | – | – | – | – | – | – | – | – | – |
| Cc1ccc(NC(=O)CCN2CC[C@@]3(C)c4cc(O)ccc4C[C@@H]2[C@@H]3C)cc1 [Compound 11, 3-[(2R,6R,11R)-8-Hydroxy-6,11-dimethyl-1,4,5,6-tetrahydro-2,6-methano-3-benzazocin-3(2H)-yl]-N-(4-methylphenyl)propanamide] | Inactive | – | 1410 nM | MOR partial agonists | 0.23 ± 0.011 | 410 ± 23 nM | Inactive | 0.24 ± 0.015 µM | 1.01 ± 0.11 µM | 1480 nM | DOR/KOR antagonists | 1410 nM | able to inhibit the stimulatory effects induced by dynorphin A | DOR/KOR antagonists | – | – | – | – |
| C[C@H]1[C@H]2Cc3ccc(O)cc3[C@]1(C)CCN2CCC(=O)Nc1ccc(C#N)cc1 [Compound 12, N-(4-Cyanophenyl)-3-[(2R,6R,11R)-8-hydroxy-6,11-dimethyl-1,4,5,6-tetrahydro-2,6-methano-3-benzazocin-3(2H)-yl]propanamide] | Inactive | – | 1020 nM | MOR partial agonists | 0.34 ± 0.017 | 380 ± 34 nM | Inactive | 0.21 ± 0.024 µM | 0.85 ± 0.18 µM | 1510 nM | DOR/KOR antagonists | 1260 nM | able to inhibit the stimulatory effects induced by dynorphin A | DOR/KOR antagonists | – | – | – | – |
| COc1ccc(NC(=O)CCN2CC[C@@]3(C)c4cc(O)ccc4C[C@@H]2[C@@H]3C)cc1 [Compound 13, 3-[(2R,6R,11R)-8-Hydroxy-6,11-dimethyl-1,4,5,6-tetrahydro-2,6-methano-3-benzazocin-3(2H)-yl]-N-(4-methoxyphenyl)propanamide] | Inactive | Inactive | – | – | – | 1100 ± 110 nM | Inactive | 0.18 ± 0.011 µM | 4 ± 0.18 µM | – | – | – | Inactive | – | 172.9 to 173.5 °C | 501 nM | Inactive | – |
| C[C@H]1[C@H]2Cc3ccc(O)cc3[C@]1(C)CCN2CCC(=O)N1CCCc2ccccc21 [Compound 15, 1-(3,4-Dihydroquinolin-1(2H)-yl)-3-[(2R,6R,11R)-8-hydroxy-6,11-dimethyl-1,4,5,6-tetrahydro-2,6-methano-3-benzazocin-3(2H)-yl]-propan-1-one] | Inactive | Inactive | – | – | – | – | – | – | – | – | – | – | – | partial agonist of KOR | 92.2 °C (dec.) | – | Inactive | intrinsic activity (α) at KOR (human-KOR [1]; ratio of Emax of ligand to that of the standard): 0.32 ± 0.016; EC50 (human-KOR [1]; read-out: KOR pEC50 (CL95%) (converted)): 257 nM; Ki (rat-MOR; [3H]-DPN displacement, means ± SEM of three experiments in duplicate, read-out: Ki (μM) ± SEM MOR): 0.36 ± 0.023 µM; Ki (human-KOR [2]; [3H]-DPN displacement, means ± SEM of three experiments in duplicate, read-out: Ki (μM) ± SEM KOR): 0.2 ± 0.02 µM |
| C[C@H]1[C@H]2Cc3ccc(O)cc3[C@]1(C)CCN2CCC(=O)N(c1ccccc1)c1ccccc1 [Compound 16, 3-[(2R,6R,11R)-8-Hydroxy-6,11-dimethyl-1,4,5,6-tetrahydro-2,6-methano-3-benzazocin-3(2H)-yl]-N,N-diphenylpropanamide] | Inactive | Inactive | – | MOR/KOR antagonist | – | – | Inactive | 0.17 ± 0.013 µM | 0.2 ± 0.03 µM | – | – | 776 nM | able to inhibit the stimulatory effects induced by dynorphin A | MOR/KOR antagonist | 173.5 °C (dec.) | 759 nM | Inactive | – |
